Assay results as given in patent US8415469B2, “Compounds and methods for kinase modulation, and indications therefor” (Plexxikon Inc., priority 2005, dated 2013).
One block for each compound: values may come before it.

How the values were obtained:
Type in all cases: biochemical
[1] = molecular target: T1, B-Raf (Homo sapiens, UniProt P15056); assay: AlphaScreen kinase assay, B-Raf; details: read-out: IC50, activity toward kinase B-Raf
T1 construct: purchased Upstate Biotechnology

[2] = molecular target: T2, B-Raf V600E (Homo sapiens, UniProt P15056, V600E); assay: AlphaScreen kinase assay, B-Raf V600E; details: read-out: IC50, activity toward kinase B-Raf V600E
T2 construct: P4254. pFastBacBD-CDC37 BRAF D437-K722-X, V600E; His6 with pFastBac HT leader (TEV site) (N); made in house; host or cells: Sf9 (baculovirus; chaperone CDC37 co-expressed)
T2 sequence (P15056 with tags, fused parts or gaps V600E): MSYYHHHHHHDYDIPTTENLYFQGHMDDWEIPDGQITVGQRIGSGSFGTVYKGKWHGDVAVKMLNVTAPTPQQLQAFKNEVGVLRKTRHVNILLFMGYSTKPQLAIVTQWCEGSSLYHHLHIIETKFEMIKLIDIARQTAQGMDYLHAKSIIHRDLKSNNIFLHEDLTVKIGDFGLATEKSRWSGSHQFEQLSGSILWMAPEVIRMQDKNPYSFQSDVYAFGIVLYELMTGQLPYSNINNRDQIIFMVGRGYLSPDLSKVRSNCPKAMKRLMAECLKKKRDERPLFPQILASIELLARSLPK

[3] = molecular target: T3, Fms (Homo sapiens, UniProt P07333); assay: AlphaScreen kinase assay, Fms; details: read-out: IC50, activity toward kinase Fms
T3 construct: purchased Upstate Biotechnology
T3 sequence (P07333 20-972): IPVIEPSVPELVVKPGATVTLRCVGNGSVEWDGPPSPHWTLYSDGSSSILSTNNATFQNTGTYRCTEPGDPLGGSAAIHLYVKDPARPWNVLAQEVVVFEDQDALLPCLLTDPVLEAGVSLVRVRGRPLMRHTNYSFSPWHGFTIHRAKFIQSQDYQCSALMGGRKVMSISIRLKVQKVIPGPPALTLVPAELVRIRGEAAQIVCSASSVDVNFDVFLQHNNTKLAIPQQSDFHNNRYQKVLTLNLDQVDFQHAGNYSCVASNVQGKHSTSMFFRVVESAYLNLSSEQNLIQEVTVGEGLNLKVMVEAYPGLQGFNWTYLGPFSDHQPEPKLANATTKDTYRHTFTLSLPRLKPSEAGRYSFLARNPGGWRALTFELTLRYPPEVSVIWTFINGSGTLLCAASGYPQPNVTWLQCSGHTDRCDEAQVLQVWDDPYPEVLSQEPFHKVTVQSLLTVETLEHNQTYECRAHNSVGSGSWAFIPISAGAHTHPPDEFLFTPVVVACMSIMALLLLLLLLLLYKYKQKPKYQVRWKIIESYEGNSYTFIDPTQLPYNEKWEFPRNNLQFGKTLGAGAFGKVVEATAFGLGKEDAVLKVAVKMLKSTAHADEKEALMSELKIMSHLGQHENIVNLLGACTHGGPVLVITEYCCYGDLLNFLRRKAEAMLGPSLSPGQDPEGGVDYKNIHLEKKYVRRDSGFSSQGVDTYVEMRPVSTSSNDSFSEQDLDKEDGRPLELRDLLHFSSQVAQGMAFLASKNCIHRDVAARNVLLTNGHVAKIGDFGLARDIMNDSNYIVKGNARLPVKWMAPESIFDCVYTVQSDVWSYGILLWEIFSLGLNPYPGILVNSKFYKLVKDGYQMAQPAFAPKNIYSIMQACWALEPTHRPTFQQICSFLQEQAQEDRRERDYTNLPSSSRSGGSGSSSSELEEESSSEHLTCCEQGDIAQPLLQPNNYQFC

[4] = molecular target: T4, FGFR1 (Homo sapiens, UniProt P11362, C488A/C584S); assay: AlphaScreen kinase assay, FGFR1; details: read-out: IC50, activity toward kinase FGFR
T4 construct: P1351.pET N6 BI-PTP FGFR A458-E765-X C488A, C584S; made in house; host or cells: E. coli (PTP1B co-expressed)
T4 sequence (P11362 458-765 C488A/C584S): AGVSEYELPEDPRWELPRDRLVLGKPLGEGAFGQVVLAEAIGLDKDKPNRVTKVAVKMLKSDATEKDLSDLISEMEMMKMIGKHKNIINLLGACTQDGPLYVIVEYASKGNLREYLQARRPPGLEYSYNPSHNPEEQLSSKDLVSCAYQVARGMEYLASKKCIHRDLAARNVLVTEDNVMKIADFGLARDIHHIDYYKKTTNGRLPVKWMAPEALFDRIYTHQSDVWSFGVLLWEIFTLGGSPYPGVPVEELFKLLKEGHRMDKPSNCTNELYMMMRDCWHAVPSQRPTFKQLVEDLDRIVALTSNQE

[5] = molecular target: T5, Kit (Homo sapiens, UniProt P10721); assay: AlphaScreen kinase assay, Kit; details: read-out: IC50, activity toward kinase Kit
T5 construct: P1332.N6 BI PTP KIT M552-K948-X COD; His6 (N); made in house; host or cells: E. coli (PTP1B co-expressed)
T5 sequence (P10721 with tags, fused parts or gaps): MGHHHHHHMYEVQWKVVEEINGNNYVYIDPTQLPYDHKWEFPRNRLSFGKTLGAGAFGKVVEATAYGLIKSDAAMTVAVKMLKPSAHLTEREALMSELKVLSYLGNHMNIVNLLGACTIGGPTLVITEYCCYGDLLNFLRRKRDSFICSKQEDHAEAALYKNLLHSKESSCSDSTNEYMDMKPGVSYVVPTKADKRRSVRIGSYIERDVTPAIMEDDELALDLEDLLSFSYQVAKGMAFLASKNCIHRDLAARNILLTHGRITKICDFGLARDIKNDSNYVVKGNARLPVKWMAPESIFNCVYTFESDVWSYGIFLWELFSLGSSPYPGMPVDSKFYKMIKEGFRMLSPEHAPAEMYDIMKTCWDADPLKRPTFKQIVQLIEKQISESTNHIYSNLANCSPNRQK

T1 sequence (P15056 whole entry): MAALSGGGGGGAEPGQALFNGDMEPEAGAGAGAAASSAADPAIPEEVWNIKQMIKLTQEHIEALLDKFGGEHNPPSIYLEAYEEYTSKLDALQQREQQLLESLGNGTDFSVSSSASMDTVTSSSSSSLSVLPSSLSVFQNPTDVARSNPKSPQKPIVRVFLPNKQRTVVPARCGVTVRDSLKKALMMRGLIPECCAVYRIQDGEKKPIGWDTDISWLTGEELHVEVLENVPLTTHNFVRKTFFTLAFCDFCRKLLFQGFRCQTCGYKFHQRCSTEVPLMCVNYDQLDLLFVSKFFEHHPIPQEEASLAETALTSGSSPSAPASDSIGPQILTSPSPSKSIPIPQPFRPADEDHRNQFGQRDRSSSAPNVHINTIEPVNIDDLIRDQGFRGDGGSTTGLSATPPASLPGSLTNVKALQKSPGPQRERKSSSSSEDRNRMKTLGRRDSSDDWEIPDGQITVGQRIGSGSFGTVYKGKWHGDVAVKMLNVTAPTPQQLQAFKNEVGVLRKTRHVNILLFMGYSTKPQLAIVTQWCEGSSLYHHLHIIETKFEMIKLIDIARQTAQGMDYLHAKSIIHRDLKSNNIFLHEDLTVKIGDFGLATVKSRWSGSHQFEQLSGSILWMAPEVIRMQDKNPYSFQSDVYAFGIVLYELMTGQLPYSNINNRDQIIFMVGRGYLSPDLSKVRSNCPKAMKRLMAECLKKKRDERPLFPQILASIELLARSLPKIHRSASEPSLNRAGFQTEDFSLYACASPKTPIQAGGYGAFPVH

SMILES: CS(=O)(=O)Nc1cccc(-c2cnc3[nH]cc(C(=O)c4cc(OC(F)F)cc(OC(F)F)c4)c3c2)c1 [Compound P-1522, N-{3-[3-(3,5-Bis-difluoromethoxy-benzoyl)-1H-pyrrolo[2,3-b]pyridin-5-yl]-phenyl}-methanesulfonamide]
IC50 [4]: ≤ 10 µM
IC50 [5]: ≤ 10 µM
IC50 [3]: ≤ 10 µM

SMILES: COc1ccc(Cc2c[nH]c3ncc(-c4ccsc4)cc23)cc1OC [Compound P-0563]
IC50 [4]: ≤ 10 µM
IC50 [5]: ≤ 10 µM
IC50 [3]: ≤ 10 µM

SMILES: Clc1ccc(Cc2c[nH]c3ncccc23)cc1 [Compound P-0233]
IC50 [4]: ≤ 10 µM
IC50 [5]: ≤ 10 µM
IC50 [3]: ≤ 10 µM

SMILES: O=C(c1cccc(OC(F)F)c1)c1c[nH]c2ncc(-c3ccccc3)cc12 [Compound P-1409, (3-Difluoromethoxy-phenyl)-(5-phenyl-1H-pyrrolo[2,3-b]pyridin-3-yl)-methanone]
IC50 [4]: ≤ 10 µM
IC50 [5]: ≤ 10 µM
IC50 [2]: ≤ 10 µM
IC50 [3]: ≤ 10 µM

SMILES: OC(c1c(F)ccc(N(Cc2ccccc2)Cc2ccccc2)c1F)c1c[nH]c2ncc(-c3cccnc3)cc12 (stereo not drawn) [Compound P-1080]
IC50 [1]: ≤ 10 µM

SMILES: O=C(c1c(F)ccc(NS(=O)(=O)c2cc(F)cc(F)c2)c1F)c1c[nH]c2ncc(Cl)cc12 [Compound P-1841, N-[3-(5-chloro-1H-pyrrolo[2,3-b]pyridine-3-carbonyl)-2,4-difluoro-phenyl]-3,5-difluorobenzenesulfonamide]
IC50 [1]: ≤ 10 µM
IC50 [2]: ≤ 10 µM

SMILES: CCCS(=O)(=O)Nc1cccc(C(=O)c2c[nH]c3ncc(Br)cc23)c1 [Compound P-1116, propane-1-sulfonic acid [3-(5-bromo-1H-pyrrolo[2,3-b]pyridin-3-carbonyl)-phenyl]-amide]
IC50 [1]: ≤ 10 µM
IC50 [4]: ≤ 10 µM
IC50 [2]: ≤ 10 µM

SMILES: OC(c1c(F)ccc(OC(F)F)c1F)c1c[nH]c2ncc(Br)cc12 (stereo not drawn) [Compound P-1525]
IC50 [4]: ≤ 10 µM
IC50 [5]: ≤ 10 µM
IC50 [3]: ≤ 10 µM

SMILES: O=C(c1c(F)ccc(NS(=O)(=O)c2ccc(F)cc2)c1F)c1c[nH]c2ncccc12 [Compound P-1865, N-[2,4-Difluoro-3-(1H-pyrrolo[2,3-b]pyridine-3-carbonyl)-phenyl]-4-fluoro-benzenesulfonamide]
IC50 [1]: ≤ 10 µM
IC50 [5]: ≤ 10 µM
IC50 [2]: ≤ 10 µM

SMILES: COc1cccc(Cc2c[nH]c3ncc(Br)cc23)c1 [Compound P-0556]
IC50 [1]: ≤ 10 µM
IC50 [4]: ≤ 10 µM
IC50 [5]: ≤ 10 µM

SMILES: O=C(Nc1cccc(C(=O)c2c[nH]c3ncc(-c4ccc(F)cc4)cc23)c1)Nc1cc(C(F)(F)F)ccc1Cl [Compound P-1752, 1-(2-Chloro-5-trifluoromethyl-phenyl)-3-{3-[5-(4-fluoro-phenyl)-1H-pyrrolo[2,3-b]pyridine-3-carbonyl]-phenyl}-urea]
IC50 [1]: ≤ 10 µM
IC50 [2]: ≤ 10 µM

SMILES: c1ccc(CCc2c[nH]c3ncccc23)cc1 [Compound P-0200]
IC50 [1]: ≤ 10 µM
IC50 [2]: ≤ 10 µM

SMILES: Cc1ccc(S(=O)(=O)Nc2ccc(F)c(C(=O)c3c[nH]c4ncc(Cl)cc34)c2F)cc1F [Compound P-1823, N-[3-(5-Chloro-1H-pyrrolo[2,3-b]pyridine-3-carbonyl)-2,4-difluoro-phenyl]-3-fluoro-4-methyl-benzenesulfonamide]
IC50 [1]: ≤ 10 µM
IC50 [2]: ≤ 10 µM

SMILES: CSc1nccc(-c2ccc(S(=O)(=O)NCc3c[nH]c4ncccc34)s2)n1 [Compound P-0854]
IC50 [4]: ≤ 10 µM
IC50 [5]: ≤ 10 µM
IC50 [3]: ≤ 10 µM

SMILES: Oc1cccc(Nc2ccnc3[nH]ccc23)c1 [Compound P-0980]
IC50 [1]: ≤ 10 µM
IC50 [2]: ≤ 10 µM

SMILES: CCCC(=O)Nc1ccc(F)c(Cc2c[nH]c3ncc(OC)cc23)c1F [Compound P-1369]
IC50 [4]: ≤ 10 µM
IC50 [5]: ≤ 10 µM
IC50 [2]: ≤ 10 µM
IC50 [3]: ≤ 10 µM

The next lines start with the values.

IC50 [1]: ≤ 10 µM
IC50 [2]: ≤ 10 µM
IC50 [3]: ≤ 10 µM
SMILES: CN(C)c1ccc(NC(=O)Nc2cccc(C(=O)c3c[nH]c4ncc(Cl)cc34)c2)cc1 [Compound P-1782, 1-[3-(5-Chloro-1H-pyrrolo[2,3-b]pyridine-3-carbonyl)-phenyl]-3-(4-dimethylamino-phenyl)-urea]

IC50 [1]: ≤ 10 µM
IC50 [2]: ≤ 10 µM
IC50 [3]: ≤ 10 µM
SMILES: O=C(Nc1cccnc1)Nc1cccc(C(=O)c2c[nH]c3ncccc23)c1 [Compound P-1781, 1-Pyridin-3-yl-3-[3-(1H-pyrrolo[2,3-b]pyridine-3-carbonyl)-phenyl]-urea]

IC50 [1]: ≤ 10 µM
IC50 [2]: ≤ 10 µM
IC50 [3]: ≤ 10 µM
SMILES: O=C(Nc1cccc(C(=O)c2c[nH]c3ncc(-c4ccc(F)cc4)cc23)c1)Nc1ccc(F)c(F)c1 [Compound P-1817, 1-(3,4-Difluoro-phenyl)-3-{3-[5-(4-fluoro-phenyl)-1H-pyrrolo[2,3-b]pyridine-3-carbonyl]-phenyl}-urea]

IC50 [1]: ≤ 10 µM
IC50 [2]: ≤ 10 µM
IC50 [3]: ≤ 10 µM
SMILES: O=C(Nc1cccc(C(=O)c2c[nH]c3ncccc23)c1)Nc1cccc(C(F)(F)F)c1 [Compound P-1746, 1-[3-(1H-Pyrrolo[2,3-b]pyridine-3-carbonyl)-phenyl]-3-(3-trifluoromethyl-phenyl)-urea]

IC50 [1]: ≤ 10 µM
IC50 [2]: ≤ 10 µM
IC50 [3]: ≤ 10 µM
SMILES: COc1ccc(NC(=O)Nc2cccc(C(=O)c3c[nH]c4ncccc34)c2)cn1 [Compound P-1763, 1-(6-Methoxy-pyridin-3-yl)-3-[3-(1H-pyrrolo[2,3-b]pyridine-3-carbonyl)-phenyl]-urea]

IC50 [1]: ≤ 10 µM
IC50 [2]: ≤ 10 µM
SMILES: CCCS(=O)(=O)Nc1ccc(F)c(Cc2c[nH]c3ncc(N4CCC(C)CC4)cc23)c1F [Compound P-0984, Propane-1-sulfonic acid {2,4-difluoro-3-[5-(4-methyl-piperidin-1-yl)-1H-pyrrolo[2,3-b]pyridin-3-ylmethyl]-phenyl}-amide]

IC50 [1]: ≤ 10 µM
IC50 [2]: ≤ 10 µM
IC50 [3]: ≤ 10 µM
SMILES: COC(=O)c1ccc(S(=O)(=O)Nc2ccc(F)c(C(=O)c3c[nH]c4ncc(Cl)cc34)c2F)o1 [Compound P-1907, 5-[3-(5-Chloro-1H-pyrrolo[2,3-b]pyridine-3-carbonyl)-2,4-difluoro-phenylsulfamoyl]-furan-2-carboxylic acid methyl ester]

IC50 [1]: ≤ 10 µM
IC50 [2]: ≤ 10 µM
IC50 [3]: ≤ 10 µM
SMILES: Cc1cccc(NC(=O)Nc2cccc(C(=O)c3c[nH]c4ncc(-c5ccc(F)cc5)cc34)c2)c1 [Compound P-1758, 1-{3-[5-(4-Fluoro-phenyl)-1H-pyrrolo[2,3-b]pyridine-3-carbonyl]-phenyl}-3-m-tolyl-urea]

IC50 [1]: ≤ 10 µM
IC50 [2]: ≤ 10 µM
IC50 [3]: ≤ 10 µM
SMILES: CCCS(=O)(=O)Nc1ccc(F)c(C(=O)c2c[nH]c3ncc(-c4nc(C)c[nH]4)cc23)c1F [Compound P-2006, Propane-1-sulfonic acid {2,4-difluoro-3-[5-(4-methyl-1H-imidazol-2-yl)-1H-pyrrolo[2,3-b]pyridine-3-carbonyl]-phenyl}-amide]

IC50 [1]: ≤ 10 µM
IC50 [2]: ≤ 10 µM
IC50 [3]: ≤ 10 µM
SMILES: N#Cc1ccc(S(=O)(=O)Nc2cccc(C(=O)c3c[nH]c4ncccc34)c2)cc1 [Compound P-1701]

IC50 [1]: ≤ 10 µM
IC50 [2]: ≤ 10 µM
IC50 [3]: ≤ 10 µM
SMILES: O=C(Nc1cccc(C(=O)c2c[nH]c3ncc(Cl)cc23)c1)Nc1ccc(F)c(F)c1 [Compound P-1735, 1-[3-(5-Chloro-1H-pyrrolo[2,3-b]pyridine-3-carbonyl)-phenyl]-3-(3,4-difluoro-phenyl)-urea]

IC50 [1]: ≤ 10 µM
IC50 [2]: ≤ 10 µM
SMILES: CC(C)(C)OC(=O)N(Cc1ccc(Cl)cc1)c1ccc(C(O)c2c[nH]c3ncc(-c4cccnc4)cc23)cn1 (stereo not drawn) [Compound P-0414]

IC50 [1]: ≤ 10 µM
IC50 [4]: ≤ 10 µM
IC50 [2]: ≤ 10 µM
SMILES: CCCS(=O)(=O)Nc1ccc(F)c(C(=O)c2c[nH]c3ncc(CCC(=O)O)cc23)c1F [Compound P-1270, 3-3-[2,6-difluoro-3-(propane-1-sulfonylamino)-benzoyl]-1H-pyrrolo[2,3-b]pyridin-5-yl-propionic acid]

IC50 [1]: ≤ 10 µM
IC50 [5]: ≤ 10 µM
SMILES: O=C(c1c(F)ccc(NS(=O)(=O)c2ccsc2)c1F)c1c[nH]c2ncc(Cl)cc12 [Compound P-1268, Thiophene-3-sulfonic acid [3-(5-chloro-1H-pyrrolo[2,3-b]pyridin-3-carbonyl)-2,4-difluoro-phenyl]-amide]

IC50 [1]: ≤ 10 µM
IC50 [2]: ≤ 10 µM
IC50 [3]: ≤ 10 µM
SMILES: COc1cnc2[nH]cc(C(=O)c3cc(NS(=O)(=O)c4cccc(F)c4)ccc3Cl)c2c1 [Compound P-1664]

IC50 [1]: ≤ 10 µM
IC50 [2]: ≤ 10 µM
IC50 [3]: ≤ 10 µM
SMILES: COc1ccc(NC(=O)Nc2cccc(C(=O)c3c[nH]c4ncc(Cl)cc34)c2)cc1 [Compound P-1734, 1-[3-(5-Chloro-1H-pyrrolo[2,3-b]pyridine-3-carbonyl)-phenyl]-3-(4-methoxy-phenyl)-urea]

IC50 [1]: ≤ 10 µM
SMILES: COC(=O)c1cccc(Nc2ccnc3[nH]ccc23)c1 [Compound P-0932]

IC50 [1]: ≤ 10 µM
SMILES: CCCS(=O)(=O)Nc1ccc(F)c(C(=O)c2c[nH]c3ncc(Br)cc23)c1 [Compound P-1431]

IC50 [1]: ≤ 10 µM
IC50 [4]: ≤ 10 µM
IC50 [2]: ≤ 10 µM
SMILES: O=S(=O)(Nc1ccc(F)c(C(O)c2c[nH]c3ncc(Cl)cc23)c1F)c1ccc(C(F)(F)F)cc1 (stereo not drawn) [Compound P-1539]
